Results: US20200246316A1, “METHODS OF TREATING POST-SURGICAL PAIN WITH A THIAZOLINE ANTI-HYPERALGESIC AGENT” (CERSCI THERAPEUTICS, INC., priority 2019, published 2020)
Structures can show the parent of a compound that is named as a salt. Where two headings read alike, the source gives them in different places.

What was measured:
BCRP = BCRP (Homo sapiens, UniProt Q9UNQ0); assay: Inhibition of efflux (ABC) transporters
peroxynitrite = assay: Models of protein nitration; format: biochemical; settings: physiological conditions (neutral pH)
Description: (§1) In cell-based assays of PN-mediated cytotoxicity, Compound 1 is protective. […] Chemically, Compound 1 can also react stoichiometrically with peroxynitrite to form a para-nitro adduct. Without being bound by theory, by targeting and removing peroxynitrite and peroxide, Compound 1 can disrupt the ensuing cascades that lead to hypersensitivity (protein modification, ion channel hyperexcitation) thus providing a long duration event in terms of pain relief.

[1] = Dog single oral dose MTD study; format: in vivo; settings: for concentration at 0.5 h / concentration at 1 h / concentration at 2 h: dog, plasma, N = 2, read-out: Average Compound 1 Concentration in dog plasma
Method: The objective of a third single dose study in dogs was to determine the maximum tolerated dose (MTD) of Compound 1 following a single oral (gavage) dose in male and female dogs. Using a pyramiding dose schedule, dose levels of 250, 350 and 500 mg/kg were administered to 2 dogs/sex (after a washout period of at least three days, the same animals were dosed with the next dose level). The dose volume was 10 mL/kg body weight. The vehicle was 0.5% aqueous HPMC.

OATP1B1 = target: T1, OATP1B1 (Homo sapiens, UniProt Q9Y6L6); assay: Inhibition of uptake (SLC) transporters; format: in vitro ADME
T1 construct: expressed in transfected cells; host or cells: HEK293 cells

mouse incisional model = assay: Mouse incisional model (mimicking the Brennan protocol); format: in vivo; settings: 10 mg/kg IP QD, Days 1 and 3 after incision
Method: In a mouse incisional model (mimicking the Brennan protocol), animals were baselined for mechanical thresholds prior to incision and then given a daily dose of Compound 1 (10 mg/kg IP QD) or vehicle for 7 days.

[2] = Solubility in organic/aqueous solvents; format: physicochemical
Method: Polymorphic screening of crystalline Compound 1 was performed using 15 organic/aqueous solvent systems, including: n-heptane, methanol, toluene, acetone, tetrahydrofuran, iso-propanol, ethanol, ethyl acetate, iso-propyl acetate, tert-butylmethyl ether, […], 10% water/90% tetrahydrofuran, tert-butyl alcohol, water, and 1:1 tert-butyl alcohol:water.

[3] = tested on: lactoperoxidase oxidation (mediated by peroxide); assay: Lactoperoxidase oxidation (mediated by peroxide); format: biochemical; settings: physiological conditions (neutral pH)
Description: as §1

CYP1A2 = target: T2, CYP1A2 (Homo sapiens, UniProt P05177); assay: CYP inhibition in human liver microsomes; format: in vitro ADME
T2 construct: tissue BD Gentest; host or cells: human liver microsomes
T2 sequence (P05177 1-516): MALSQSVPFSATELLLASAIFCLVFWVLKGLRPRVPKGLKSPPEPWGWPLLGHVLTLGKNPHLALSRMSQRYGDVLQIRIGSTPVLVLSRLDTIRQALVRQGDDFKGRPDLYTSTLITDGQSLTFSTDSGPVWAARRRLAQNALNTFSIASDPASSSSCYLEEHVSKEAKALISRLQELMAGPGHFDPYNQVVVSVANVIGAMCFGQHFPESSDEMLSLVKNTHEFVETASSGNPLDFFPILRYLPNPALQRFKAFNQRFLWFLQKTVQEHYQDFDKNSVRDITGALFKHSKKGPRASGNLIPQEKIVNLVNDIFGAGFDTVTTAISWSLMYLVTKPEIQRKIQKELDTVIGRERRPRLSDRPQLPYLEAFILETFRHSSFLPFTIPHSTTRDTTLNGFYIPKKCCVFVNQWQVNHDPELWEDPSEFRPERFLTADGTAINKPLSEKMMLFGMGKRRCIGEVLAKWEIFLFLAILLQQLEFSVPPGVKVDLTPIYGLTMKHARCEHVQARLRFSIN
Method: (§2) At varying concentrations, Compound 1 was incubated with human liver microsomes (HLM) in the presence of known substrates (see below) of specific CYP isoforms, in order to measure inhibition induced by Compound 1. Microsomes were incubated with known inhibitors (positive controls) of each CYP isoform, in the presence of substrate, in order to measure the metabolic activity of the microsomes.

CYP2D6 = target: T3, CYP2D6 (Homo sapiens, UniProt P10635); assay: CYP inhibition in human liver microsomes; format: in vitro ADME
T3 construct: tissue BD Gentest; host or cells: human liver microsomes
Method: as §2

[4] = Rat 7-day repeat dose PO study (toxicokinetics, MTD); format: in vivo; settings: 2000 mg/kg
Description: The vehicle was 0.5% HPMC.
Toxicokinetic (TK) results were as follows:

OATP1B3 = target: T4, OATP1B3 (Homo sapiens, UniProt Q9NPD5); assay: Inhibition of uptake (SLC) transporters; format: in vitro ADME
T4 construct: expressed in transfected cells; host or cells: HEK293 cells

PN-mediated cytotoxicity = assay: Cell-based assays of PN-mediated cytotoxicity
Description: as §1

[5] = female, 250 mg/kg PO (Dose 1; Day 1), F
[6] = female, 350 mg/kg PO (Dose 3; Day 9), F
[7] = female, 500 mg/kg PO (Dose 2; Day 4), F
[8] = male, 250 mg/kg PO (Dose 1; Day 1), M
[9] = male, 350 mg/kg PO (Dose 3; Day 9), M
[10] = male, 500 mg/kg PO (Dose 2; Day 4), M
[11] = HEK293 cells, probe [3H]-estradiol-17β-glucuronide (0.05 μM), 0.3-600 μM tested
[12] = both, Sprague Dawley (Hsd:SD), rat, in vivo, po

T3 sequence (P10635 whole entry): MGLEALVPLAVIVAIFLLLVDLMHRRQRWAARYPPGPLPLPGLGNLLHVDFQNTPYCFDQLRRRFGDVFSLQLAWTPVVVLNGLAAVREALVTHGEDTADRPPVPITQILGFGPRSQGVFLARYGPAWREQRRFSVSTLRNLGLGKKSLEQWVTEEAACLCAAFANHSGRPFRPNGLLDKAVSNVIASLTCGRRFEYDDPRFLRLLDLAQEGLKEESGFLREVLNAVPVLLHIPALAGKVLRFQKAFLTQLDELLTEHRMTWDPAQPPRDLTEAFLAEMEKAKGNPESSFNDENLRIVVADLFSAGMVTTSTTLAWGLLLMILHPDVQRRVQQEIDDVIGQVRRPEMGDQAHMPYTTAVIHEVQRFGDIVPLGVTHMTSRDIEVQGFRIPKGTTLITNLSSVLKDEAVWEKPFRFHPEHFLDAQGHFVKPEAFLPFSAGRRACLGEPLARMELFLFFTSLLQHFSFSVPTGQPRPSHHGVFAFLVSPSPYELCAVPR
T4 sequence (Q9NPD5 whole entry): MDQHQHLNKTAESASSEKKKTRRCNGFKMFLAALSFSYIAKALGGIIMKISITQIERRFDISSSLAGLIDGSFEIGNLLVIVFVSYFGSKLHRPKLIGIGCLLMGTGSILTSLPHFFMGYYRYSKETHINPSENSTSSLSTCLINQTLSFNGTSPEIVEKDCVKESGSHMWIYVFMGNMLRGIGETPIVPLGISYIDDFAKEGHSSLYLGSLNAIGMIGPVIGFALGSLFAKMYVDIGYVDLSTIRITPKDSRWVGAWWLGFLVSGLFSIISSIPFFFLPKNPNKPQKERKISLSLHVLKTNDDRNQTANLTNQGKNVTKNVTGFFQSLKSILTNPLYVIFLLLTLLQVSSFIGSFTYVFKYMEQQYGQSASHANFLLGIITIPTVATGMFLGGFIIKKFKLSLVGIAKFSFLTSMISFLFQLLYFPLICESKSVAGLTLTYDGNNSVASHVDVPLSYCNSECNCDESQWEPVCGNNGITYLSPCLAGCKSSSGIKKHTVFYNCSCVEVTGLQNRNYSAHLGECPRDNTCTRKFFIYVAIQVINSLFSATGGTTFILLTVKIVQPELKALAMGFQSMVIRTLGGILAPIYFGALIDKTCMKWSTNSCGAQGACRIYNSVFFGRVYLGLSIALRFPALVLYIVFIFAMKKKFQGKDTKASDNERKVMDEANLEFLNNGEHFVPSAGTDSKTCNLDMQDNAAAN
Sequence of BCRP (Q9UNQ0 whole entry): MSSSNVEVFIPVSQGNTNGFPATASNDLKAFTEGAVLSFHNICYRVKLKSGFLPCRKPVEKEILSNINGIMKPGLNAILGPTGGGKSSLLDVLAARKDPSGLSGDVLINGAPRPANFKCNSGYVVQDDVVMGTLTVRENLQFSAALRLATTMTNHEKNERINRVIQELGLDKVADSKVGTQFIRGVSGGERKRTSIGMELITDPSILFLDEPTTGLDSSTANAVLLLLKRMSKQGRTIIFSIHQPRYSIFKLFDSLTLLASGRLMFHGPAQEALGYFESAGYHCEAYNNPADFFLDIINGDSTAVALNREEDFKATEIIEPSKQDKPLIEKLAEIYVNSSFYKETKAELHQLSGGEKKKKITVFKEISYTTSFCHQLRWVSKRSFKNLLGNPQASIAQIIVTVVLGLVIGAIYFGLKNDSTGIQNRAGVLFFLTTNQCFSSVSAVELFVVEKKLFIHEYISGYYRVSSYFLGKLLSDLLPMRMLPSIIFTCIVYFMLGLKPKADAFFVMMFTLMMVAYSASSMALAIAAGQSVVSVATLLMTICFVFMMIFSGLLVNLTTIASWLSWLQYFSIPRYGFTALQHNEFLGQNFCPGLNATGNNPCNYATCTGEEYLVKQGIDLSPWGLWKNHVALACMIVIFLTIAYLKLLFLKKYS
T1 sequence (Q9Y6L6 whole entry): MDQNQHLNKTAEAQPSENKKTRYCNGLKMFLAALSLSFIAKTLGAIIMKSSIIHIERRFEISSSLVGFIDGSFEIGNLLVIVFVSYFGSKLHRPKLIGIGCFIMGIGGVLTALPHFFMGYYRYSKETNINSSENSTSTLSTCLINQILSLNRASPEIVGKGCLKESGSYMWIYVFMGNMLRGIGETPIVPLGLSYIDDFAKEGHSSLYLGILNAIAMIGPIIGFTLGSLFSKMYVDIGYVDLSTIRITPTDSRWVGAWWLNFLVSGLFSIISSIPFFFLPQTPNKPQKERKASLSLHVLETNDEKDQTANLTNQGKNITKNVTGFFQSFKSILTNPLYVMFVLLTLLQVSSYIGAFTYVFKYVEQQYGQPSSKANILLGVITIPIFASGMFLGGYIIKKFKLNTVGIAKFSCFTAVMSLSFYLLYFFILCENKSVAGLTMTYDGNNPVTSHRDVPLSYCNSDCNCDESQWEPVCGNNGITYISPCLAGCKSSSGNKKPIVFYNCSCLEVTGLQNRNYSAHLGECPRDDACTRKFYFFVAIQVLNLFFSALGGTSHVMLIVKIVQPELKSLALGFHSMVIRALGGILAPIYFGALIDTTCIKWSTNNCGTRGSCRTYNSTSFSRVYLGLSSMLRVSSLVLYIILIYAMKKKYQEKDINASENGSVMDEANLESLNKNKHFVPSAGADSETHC

## CC1(C)SC(Nc2ccccc2O)=N[C@@H]1C(=O)O [Compound 1, (R)-2-(2-hydroxyphenylamino)-5,5-dimethyl-4,5-dihydrothiazole-4-carboxylic acid mono-hydrochloride]
BCRP
  IC50: > 30 µM
BCRP; BCRP
  transporter inhibition: modestly inhibits
peroxynitrite
  removal of peroxynitrite in models of protein nitration: catalytically remove peroxynitrite
[1]; [5]
  concentration at 0.5 h: 28 µg/mL
  concentration at 1 h: 54 µg/mL
  concentration at 2 h: 46 µg/mL
[1]; [6]
  concentration at 0.5 h: 67 µg/mL
  concentration at 1 h: 154 µg/mL
  concentration at 2 h: 119 µg/mL
[1]; [7]
  concentration at 0.5 h: 87 µg/mL
  concentration at 1 h: 136 µg/mL
  concentration at 2 h: 124 µg/mL
[1]; [8]
  concentration at 0.5 h: 71 µg/mL
  concentration at 1 h: 110 µg/mL
  concentration at 2 h: 91 µg/mL
[1]; [9]
  concentration at 0.5 h: 134 µg/mL
  concentration at 1 h: 220 µg/mL
  concentration at 2 h: 153 µg/mL
[1]; [10]
  concentration at 0.5 h: 111 µg/mL
  concentration at 1 h: 191 µg/mL
  concentration at 2 h: 193 µg/mL
[1]; single dose 500 mg/kg
  emesis incidence: three of the four dosed animals
[1]; single oral (gavage) dose 500 mg/kg
  tolerability: not tolerated
OATP1B1; [11]
  IC50: > 600 µM
OATP1B1; OATP1B1
  transporter inhibition: does not inhibit
Mouse incisional model
  hyperalgesia: not hyperalgesic
[2]; 10% water/tetrahydrofuran
  solubility: sparingly soluble
[2]; 10% water:iso-propyl acetate
  solubility: sparingly soluble
[2]; acetone
  solubility: less than sparingly soluble
[2]; ethanol
  solubility: sparingly soluble
[2]; ethyl acetate
  solubility: less than sparingly soluble
[2]; iso-propanol
  solubility: sparingly soluble
[2]; iso-propyl acetate
  solubility: less than sparingly soluble
[2]; methanol
  solubility: freely soluble
[2]; n-heptane
  solubility: less than sparingly soluble
[2]; tert-butyl alcohol
  solubility: less than sparingly soluble
[2]; tert-butyl alcohol:water (1:1)
  solubility: freely soluble
[2]; tert-butyl methyl ether
  solubility: less than sparingly soluble
[2]; tetrahydrofuran
  solubility: less than sparingly soluble
[2]; toluene
  solubility: less than sparingly soluble
[2]; water
  solubility: sparingly soluble
[3]
  removal of peroxynitrite in lactoperoxidase oxidation: catalytically remove peroxynitrite
CYP1A2; CYP1A2, up to 100 μM
  CYP inhibition: did not inhibit
CYP1A2; CYP1A2, read-out: IC50
  IC50: > 100 µM
CYP1A2; human liver microsomes, known substrate of the CYP isoform, read-out: IC50 (μM) CYP 1A2
  IC50: > 100 µM
CYP2D6; CYP2D6, up to 100 μM
  CYP inhibition: did not inhibit
CYP2D6; CYP2D6, read-out: IC50
  IC50: > 100 µM
CYP2D6; human liver microsomes, known substrate of the CYP isoform, read-out: IC50 (μM) CYP 2D6
  IC50: > 100 µM
[4]; both sexes, Sprague Dawley (Hsd:SD), rat, in vivo, po
  Cmax: 121 µg/mL
[4]; both sexes, Sprague Dawley (Hsd:SD), rat, in vivo, po, AUC0-24 (mean)
  AUC(0-t): 1370 µg·h/mL
[4]; both sexes, Sprague Dawley (Hsd:SD), rat, in vivo, po, Seventh Daily Dose, 2000 mg/kg PO, read-out: Cmax (mean)
  Cmax: 119 µg/mL
[4]; both sexes, Sprague Dawley (Hsd:SD), rat, in vivo, po, T1/2 (mean)
  half-life: 3.9 h
[4]; both sexes, Sprague Dawley (Hsd:SD), rat, in vivo, po, Tmax (mean)
  Tmax: 2 h
[4]; both sexes, Sprague-Dawley (Hsd:SD), rat, in vivo, oral gavage 7 days
  MTD at 7 days: 2000 mg/kg
[4]; [12]
  AUC0-24 (mean): 1609 µg·h/mL
  T1/2 (mean): 6.7 h
  Tmax (mean): 1 h
[4]; female rats, oral gavage 7 days
  tolerability: tolerated
OATP1B3; [11]
  IC50: > 600 µM
OATP1B3; OATP1B3
  transporter inhibition: does not inhibit
PN-mediated cytotoxicity
  protection from PN-mediated cytotoxicity: protective
